Measured values as given in PMC11025159 (Journal of Translational Medicine, 2024).
Values joined by “and” are separate entries in the source; they are usually repeats but may differ in a detail not shown here. Equal values may be shown once. Read-outs that look alike come from different tables or passages of the source.

Legend:
[1] = Body weight of athymic nude mice during topical treatment; type: in vivo, athymic nude mice (NU/J Foxn1nu); details: individual mice
Method: . The groups are as follows: Group 1-Control (untreated), Group 2-Vehicle control, Group 3-tofacitinib citrate (0.8 mg/Kg), Group 4-tofacitinib citrate (0.08 mg/Kg), Group 5-MJ04 (0.08 mg/Kg), Group 6-MJ04 (0.04 mg/Kg), Group 7-MJ04 (0.016 mg/Kg), Group 8-baricitinib (0.1 mg/Kg), Group 9-baricitinib (0.04 mg/Kg), and Group 10-baricitinib (0.02 mg/Kg). At the end of the experiment, skin samples were collected and preserved in 10% neutral buffered formalin for tissue sectioning and staining using haematoxylin and eosin (H&E). […]

JAK1 = target: T1, JAK1 (Homo sapiens, UniProt P23458); test: Cell-free kinase assay JAK1; type: biochemical
T1 construct: purchased Promega Corporation VA7207
Method: (§1) The cell-free kinase assays of small molecules were determined by following the manufacturer-recommended protocols. Different concentrations in triplicate were used to determine the IC50 value of the hit molecules (active molecules). For data analysis, GraphPad Prism V9.5 Software and a sigmoidal dose–response (variable slope) equation were used. Each value represents an average of three replicates per concentration.

JAK2 = target: T2, JAK2 (Homo sapiens, UniProt O60674); test: Cell-free kinase assay JAK2; type: biochemical; details: for IC50: read-out: IC50 JAK 2
T2 construct: purchased BPS Bioscience 79,520
Method: as §1

EGFR = target: T3, EGFR (Homo sapiens, UniProt P00533); test: Cell-free kinase assay EGFR; type: biochemical
T3 construct: purchased Promega Corporation V3831
Method: as §1

GSK-3-β = target: T4, GSK-3-β (Homo sapiens, UniProt P49841); test: Cell-free kinase assay GSK-3-β; type: biochemical
T4 construct: purchased Promega Corporation V1991
Method: as §1

IGF-1R = target: T5, IGF-1R (Homo sapiens, UniProt P08069); test: Cell-free kinase assay IGF-1R; type: biochemical
T5 construct: purchased Promega Corporation V3581
Method: as §1

A549 = test: MTT cell viability assay A549; type: cell-based, human; details: Homo sapiens, A549, 48 h
Method: Cell viability was evaluated using an MTT colorimetric assay. Cells were seeded (10^5 cells/mL) in 96-well plates and allowed to grow overnight at 37 ℃ with 5% CO2 in a cell-culture incubator. On the following day, the cells were treated with small molecules at different concentrations (0.2–10 micro-molar) or vehicle (DMSO). Cells were then further incubated for 48 h.

[2] = tested on: phosphorylation of JAK1, JAK3 and STAT3; test: Western blotting of JAK/STAT phosphorylation in A549 cells; type: cell-based, human
Method: For western blotting, A549 cells were seeded at a density of 0.2 × 10^6 cells/well in 6-well plates. […] Whole-cell lysates were prepared in 1× RIPA buffer (Sigma) with added sodium orthovanadate (1 mM), protease cocktail (Roche), NaF (1 mM), PMSF (1 mM) and EDTA (0.5 M). Protein estimation was done using Bradford reagent (Bio-Rad). […] Whole-cell lysates corresponding to 70-100 µg of protein were loaded. The samples were analysed by SDS-PAGE with a 10% separating gel. […] The membrane was probed with specific antibodies for pJAK-1 (1:1000), p-STAT-3 (CST) (1:1000), total JAK-1 (1:1000), pJAK-3 Z(1:1000), T-JAK-3 (1:1000), total STAT-3(1:1000), GAPDH (1:500), and visualized using ECL (Millipore). GAPDH was used as a loading control. […] Following this starvation period, the A549 cells were pre-treated with varying concentrations of MJ04 for a duration of 4 h. Following the pre-treatment, the cells were stimulated with 10 ng/mL of IL-6 for 30 min [20–22].

[3] = Pharmacokinetic study, dermal application; type: in vivo, C57BL/6 mice; details: male, C57BL/6, mouse, topical or ocular; topical dose 30 mg/kg, plasma
Method: The male C57BL/6 mice were used to study the pharmacokinetics of MJ04. MJ04 was dissolved in vehicle suspensions for dermal application (30 mg/kg). Blood samples were collected at different time points: 0 min, 30 min, 1 h, 2 h, 4 h, 8 h, 12 h, and 24 h after dermal application. Plasma samples were separated by centrifugation of whole blood and stored at less than − 70 °C until bioanalysis. The concentration of MJ04 in plasma was detected using LC–MS/MS (Agilent Technologies, 1260 Infinity system). The pharmacokinetic parameters were processed by DAS (version 3.2.8) software.

hERG channels = target: T6, hERG channels (Homo sapiens, UniProt Q12809); test: hERG channel assay, whole cell patch clamp; type: cell-based
T6 construct: host or cells: HEK293

[4] = rat, in vivo
[5] = A549 cells, increasing concentrations

T2 sequence (O60674 whole entry): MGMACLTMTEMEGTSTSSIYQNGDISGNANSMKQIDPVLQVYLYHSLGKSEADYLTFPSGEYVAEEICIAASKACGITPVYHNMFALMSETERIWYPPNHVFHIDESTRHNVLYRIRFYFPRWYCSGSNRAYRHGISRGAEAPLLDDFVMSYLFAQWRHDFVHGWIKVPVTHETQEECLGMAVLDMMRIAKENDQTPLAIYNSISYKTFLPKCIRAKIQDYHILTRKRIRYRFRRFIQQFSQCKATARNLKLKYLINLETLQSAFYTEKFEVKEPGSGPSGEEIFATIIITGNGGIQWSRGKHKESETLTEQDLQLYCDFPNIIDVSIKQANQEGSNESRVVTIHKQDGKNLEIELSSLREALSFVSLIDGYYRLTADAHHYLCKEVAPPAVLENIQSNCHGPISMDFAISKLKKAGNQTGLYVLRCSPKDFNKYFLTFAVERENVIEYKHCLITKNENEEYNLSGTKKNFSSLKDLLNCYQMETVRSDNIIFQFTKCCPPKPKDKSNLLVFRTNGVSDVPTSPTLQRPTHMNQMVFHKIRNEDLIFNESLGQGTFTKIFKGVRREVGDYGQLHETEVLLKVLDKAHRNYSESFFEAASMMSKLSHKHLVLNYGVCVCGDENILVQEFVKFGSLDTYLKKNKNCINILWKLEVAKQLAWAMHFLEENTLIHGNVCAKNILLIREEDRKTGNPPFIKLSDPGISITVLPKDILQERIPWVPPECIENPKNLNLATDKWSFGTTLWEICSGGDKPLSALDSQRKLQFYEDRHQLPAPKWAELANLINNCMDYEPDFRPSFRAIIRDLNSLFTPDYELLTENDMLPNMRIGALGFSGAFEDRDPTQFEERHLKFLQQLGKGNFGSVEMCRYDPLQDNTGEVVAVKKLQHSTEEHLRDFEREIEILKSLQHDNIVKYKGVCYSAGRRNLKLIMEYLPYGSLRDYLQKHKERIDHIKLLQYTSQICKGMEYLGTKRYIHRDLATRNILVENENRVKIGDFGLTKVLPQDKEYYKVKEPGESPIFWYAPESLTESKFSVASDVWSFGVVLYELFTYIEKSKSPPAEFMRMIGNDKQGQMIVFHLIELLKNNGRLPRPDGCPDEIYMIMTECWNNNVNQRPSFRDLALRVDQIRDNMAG
T1 sequence (P23458 whole entry): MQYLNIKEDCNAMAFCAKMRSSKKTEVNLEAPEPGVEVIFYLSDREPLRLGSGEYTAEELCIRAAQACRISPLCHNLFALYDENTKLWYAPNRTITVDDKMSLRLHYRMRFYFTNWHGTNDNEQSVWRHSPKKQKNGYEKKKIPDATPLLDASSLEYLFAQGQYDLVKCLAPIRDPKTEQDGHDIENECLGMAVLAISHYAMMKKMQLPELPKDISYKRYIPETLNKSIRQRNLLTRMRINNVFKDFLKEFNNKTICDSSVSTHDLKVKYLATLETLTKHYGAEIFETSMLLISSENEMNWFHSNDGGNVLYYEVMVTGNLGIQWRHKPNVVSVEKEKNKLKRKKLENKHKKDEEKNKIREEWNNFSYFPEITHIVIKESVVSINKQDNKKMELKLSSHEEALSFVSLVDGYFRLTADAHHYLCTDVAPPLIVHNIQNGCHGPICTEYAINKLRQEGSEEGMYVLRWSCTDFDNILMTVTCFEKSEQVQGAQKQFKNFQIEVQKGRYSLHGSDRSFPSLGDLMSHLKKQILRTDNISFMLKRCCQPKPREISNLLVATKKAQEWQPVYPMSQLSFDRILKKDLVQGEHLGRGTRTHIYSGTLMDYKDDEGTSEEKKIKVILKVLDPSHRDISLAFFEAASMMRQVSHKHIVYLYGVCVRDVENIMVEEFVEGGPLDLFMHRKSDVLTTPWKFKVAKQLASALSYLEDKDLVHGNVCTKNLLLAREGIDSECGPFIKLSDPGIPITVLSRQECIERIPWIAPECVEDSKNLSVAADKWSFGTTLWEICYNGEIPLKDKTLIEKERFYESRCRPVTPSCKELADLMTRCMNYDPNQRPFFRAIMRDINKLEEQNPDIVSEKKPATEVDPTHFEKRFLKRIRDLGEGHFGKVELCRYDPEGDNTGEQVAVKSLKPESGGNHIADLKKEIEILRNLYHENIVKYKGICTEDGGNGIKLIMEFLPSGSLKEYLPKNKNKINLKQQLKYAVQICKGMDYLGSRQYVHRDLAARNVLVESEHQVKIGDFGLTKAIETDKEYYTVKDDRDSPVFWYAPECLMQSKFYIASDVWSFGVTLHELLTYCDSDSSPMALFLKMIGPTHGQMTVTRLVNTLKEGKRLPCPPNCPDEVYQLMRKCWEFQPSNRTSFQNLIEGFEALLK
T4 sequence (P49841 whole entry): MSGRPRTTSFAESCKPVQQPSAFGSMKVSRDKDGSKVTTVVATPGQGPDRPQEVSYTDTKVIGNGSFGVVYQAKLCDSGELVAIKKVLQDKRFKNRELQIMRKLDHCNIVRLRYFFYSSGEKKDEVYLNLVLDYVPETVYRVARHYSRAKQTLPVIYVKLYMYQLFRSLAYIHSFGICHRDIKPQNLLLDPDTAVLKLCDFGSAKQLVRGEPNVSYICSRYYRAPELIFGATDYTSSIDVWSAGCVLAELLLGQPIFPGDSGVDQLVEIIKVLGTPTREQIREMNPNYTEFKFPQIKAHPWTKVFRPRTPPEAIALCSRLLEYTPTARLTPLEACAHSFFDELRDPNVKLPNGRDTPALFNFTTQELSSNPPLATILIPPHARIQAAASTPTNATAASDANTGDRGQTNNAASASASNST
T5 sequence (P08069 31-1367): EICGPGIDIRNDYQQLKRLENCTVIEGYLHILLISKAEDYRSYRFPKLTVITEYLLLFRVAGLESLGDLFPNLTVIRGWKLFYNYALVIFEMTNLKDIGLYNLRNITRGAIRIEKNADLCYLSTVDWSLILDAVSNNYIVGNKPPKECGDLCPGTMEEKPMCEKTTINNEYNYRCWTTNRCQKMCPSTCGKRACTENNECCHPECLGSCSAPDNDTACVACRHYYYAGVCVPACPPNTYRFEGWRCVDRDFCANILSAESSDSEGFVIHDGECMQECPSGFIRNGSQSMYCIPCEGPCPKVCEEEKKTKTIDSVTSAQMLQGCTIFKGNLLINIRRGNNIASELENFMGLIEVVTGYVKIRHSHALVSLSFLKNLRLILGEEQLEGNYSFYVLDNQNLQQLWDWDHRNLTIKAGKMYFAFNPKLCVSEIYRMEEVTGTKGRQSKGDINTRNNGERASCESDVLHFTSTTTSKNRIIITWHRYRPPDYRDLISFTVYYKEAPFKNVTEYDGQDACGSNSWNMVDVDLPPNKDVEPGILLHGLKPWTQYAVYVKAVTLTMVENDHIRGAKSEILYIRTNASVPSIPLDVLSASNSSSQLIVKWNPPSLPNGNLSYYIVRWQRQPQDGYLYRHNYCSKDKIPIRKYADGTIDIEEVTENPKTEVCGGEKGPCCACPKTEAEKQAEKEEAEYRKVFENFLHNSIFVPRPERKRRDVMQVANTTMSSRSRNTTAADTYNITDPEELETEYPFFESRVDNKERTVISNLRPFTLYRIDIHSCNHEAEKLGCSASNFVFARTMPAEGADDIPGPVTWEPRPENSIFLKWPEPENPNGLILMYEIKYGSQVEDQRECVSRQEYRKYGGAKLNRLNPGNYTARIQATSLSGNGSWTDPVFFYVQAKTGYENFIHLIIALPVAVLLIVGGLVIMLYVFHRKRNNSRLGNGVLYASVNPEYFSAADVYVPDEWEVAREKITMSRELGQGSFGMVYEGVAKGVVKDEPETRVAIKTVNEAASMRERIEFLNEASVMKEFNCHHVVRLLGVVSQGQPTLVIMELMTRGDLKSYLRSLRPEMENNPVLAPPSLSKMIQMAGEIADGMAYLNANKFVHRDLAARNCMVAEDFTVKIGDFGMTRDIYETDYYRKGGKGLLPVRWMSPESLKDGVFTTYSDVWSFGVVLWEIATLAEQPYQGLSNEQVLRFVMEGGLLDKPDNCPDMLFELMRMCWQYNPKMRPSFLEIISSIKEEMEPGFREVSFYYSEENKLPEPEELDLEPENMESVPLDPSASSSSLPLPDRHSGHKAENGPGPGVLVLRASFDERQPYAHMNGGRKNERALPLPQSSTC

Question: With `CCS(=O)(=O)N1CC(CC#N)(n2cc(-c3ncnc4[nH]ccc34)cn2)C1` [Baricitinib, baricitinib, reference compound] as the compound, how does the “Weight of nude mice (NU/J Foxn1nu)” value ([1]; 0.02 mg/kg, DAY 1) read?
Answer: 17.9 and 18.3 and 18.5 and 18.7 and 19.2

Question: What about the “Weight of nude mice (NU/J Foxn1nu)” value ([1]; 0.02 mg/kg, DAY 7) of the same compound?
Answer: 19.4 and 19.8 and 20.2 and 20.4 and 20.7

Question: What about the “Weight of nude mice (NU/J Foxn1nu)” value ([1]; 0.02 mg/kg, DAY 14) of the same compound?
Answer: 21.2 and 21.3 and 21.7 and 22.1 and 22.5

Question: What about the “Weight of nude mice (NU/J Foxn1nu)” value ([1]; 0.02 mg/kg, DAY 21) of the same compound?
Answer: 22.6 and 22.8 and 23.2 and 24.2 and 24.4

Question: And the “Weight of nude mice (NU/J Foxn1nu)” value ([1]; 0.02 mg/kg, DAY 28)?
Answer: 24.3 and 24.8 and 24.9 and 25.8 and 26.2

Question: And the “Weight of nude mice (NU/J Foxn1nu)” value ([1]; 0.04 mg/kg, DAY 1)?
Answer: 17.9 and 18.5 and 18.6 and 18.7 and 19.1

Question: And the “Weight of nude mice (NU/J Foxn1nu)” value ([1]; 0.04 mg/kg, DAY 7)?
Answer: 19.2 and 19.8 and 20.1 (2×) and 20.5

Question: And the “Weight of nude mice (NU/J Foxn1nu)” value ([1]; 0.04 mg/kg, DAY 14)?
Answer: 20.8 and 20.9 and 21.4 and 21.5 and 21.8

Question: And the “Weight of nude mice (NU/J Foxn1nu)” value ([1]; 0.04 mg/kg, DAY 21)?
Answer: 22.4 and 22.6 and 23.1 and 23.3 and 23.5

Question: What about the “Weight of nude mice (NU/J Foxn1nu)” value ([1]; 0.04 mg/kg, DAY 28) of the same compound?
Answer: 24.6 and 24.8 and 25.3 and 25.4 and 25.7

Question: And the “Weight of nude mice (NU/J Foxn1nu)” value ([1]; 0.1 mg/kg, DAY 1)?
Answer: 18.5 and 18.6 and 18.7 and 19.3 and 18.8

Question: What about the “Weight of nude mice (NU/J Foxn1nu)” value ([1]; 0.1 mg/kg, DAY 7) of the same compound?
Answer: 19.7 and 19.8 and 21.1 and 20.1 and 20.4

Question: What about the “Weight of nude mice (NU/J Foxn1nu)” value ([1]; 0.1 mg/kg, DAY 14) of the same compound?
Answer: 21.3 and 22.9 and 21.8 and 22.1

Question: What about the “Weight of nude mice (NU/J Foxn1nu)” value ([1]; 0.1 mg/kg, DAY 21) of the same compound?
Answer: 22.6 and 23.2 and 24.3 and 23.6 and 23.8

Question: What about the “Weight of nude mice (NU/J Foxn1nu)” value ([1]; 0.1 mg/kg, DAY 28) of the same compound?
Answer: 25.3 and 24.8 and 25.7 and 25.8 and 25.4

Question: Which results are given for `Fc1ccc(-c2cnc3[nH]cc(-c4ccnc(NC5CC5)n4)c3c2)cc1` [MJ04]?
Answer: IC50 (JAK1; 1mM ATP): > 10 µM; Fold of selectivity vs. JAK3 (JAK1; JAK1): 95; IC50 (JAK1; Km ATP): 0.193 µM; IC50 (JAK2; 1mM ATP): > 10 µM; Fold of selectivity vs. JAK3 (JAK2; JAK 2): 126; IC50 (JAK2; Km ATP): 0.256 µM; Fold of selectivity vs. JAK3 (EGFR; EGFR): 1609; IC50 (EGFR; Km ATP): 3.27 µM; Fold of selectivity vs. JAK3 (GSK-3-β; GSK-3-β): 908; IC50 (GSK-3-β; Km ATP): 1.84 µM; Fold of selectivity vs. JAK3 (IGF-1R; IGF-1R): 476; IC50 (IGF-1R; Km ATP): 0.967 µM; IC50 (A549): 3.79 µM; STAT3 phosphorylation ([2]; A549 cells stimulated with IL-6): significant decrease; phosphorylation of STAT3 (Tyr705) ([2]; A549 cells, dose-dependent): significant decrease; phosphorylation of JAK1 [2, 5]: significant reduction; phosphorylation of JAK3 [2, 5]: significant reduction; Cmax [3]: 480 nM; Tmax [3]: 1 h; reduction of hERG outward tail current (hERG channels; 10 μM): 7.1 ± 2%; inhibitory effect on hERG, fold less than that of Tofacitinib (hERG channels; highest concentration tested (30 μM)): ~ 2.5 fold; Globally Harmonized Classification System (GHS) category ([4]; Wistar, 14 days): Category-5; ALB ([4]; 2000 mg/kg): 4.37 ± 2.09 g/dL; ALP ([4]; 2000 mg/kg): 380.33 ± 161.30 U/L; ALT ([4]; 2000 mg/kg): 77.33 ± 3.93 U/L; AST ([4]; 2000 mg/kg): 183.63 ± 16.64 U/L; BUN ([4]; 2000 mg/kg): 13.99 ± 2.92 mg/dL; CR ([4]; 2000 mg/kg): 0.71 ± 0.18 mg/dL; Ca ([4]; 2000 mg/kg): 11.90 ± 0.36 mg/dL; GLB ([4]; 2000 mg/kg): 3.21 ± 0.09; Glucose ([4]; 2000 mg/kg): 91.13 ± 17.80 mg/dL; Na ([4]; 2000 mg/kg): 145.57 ± 1.71 mM; P ([4]; 2000 mg/kg): 4.84 ± 1.10 mg/dL; TB ([4]; 2000 mg/kg): 0.11 ± 0.03 mg/dL; TG ([4]; 2000 mg/kg): 75.33 ± 8.33 mg/dL; TP ([4]; 2000 mg/kg): 7.05 ± 0.25 g/dL; Urea ([4]; 2000 mg/kg): 36.57 ± 8.43 mg/dL
